Values of other authors in US20070117764A1, “Compositions comprising macrolide t-cell immunomodulators or immunosuppressants in combination with antibacterials” (priority 2003, published 2007).

Test system: allogeneic kidney transplantation
Details: rat, oral administration, suppression of systemic immune response

C=CC[C@@H]1/C=C(\C)C[C@H](C)C[C@H](OC)[C@H]2O[C@@](O)(C(=O)C(=O)N3CCCC[C@H]3C(=O)O[C@H](/C(C)=C/[C@@H]3CC[C@@H](O)[C@H](OC)C3)[C@H](C)[C@@H](O)CC1=O)[C@H](C)C[C@@H]2OC [tacrolimus]
minimum effective dose (MED): 14 mg/kg
